# Results published in PubChem BioAssay (NCI).
#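 1) Cells in 96-well plates. 2) Compound, 48 h, 5 concentrations. 3) Linear interpolation between surrounding doses. 4) Unreached endpoint = highest concentration. At the TGI there is no net growth.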
# Key:
# Experiment in all cases: NCI tumour cell line growth inhibition, 48 h
# UACC-62 melanoma = test system: UACC-62 melanoma
# RXF-631 renal = test system: RXF-631 renal
# NCI-H226 lung = test system: NCI-H226 lung
# SF-268 CNS = test system: SF-268 CNS
# HT29 colon = test system: HT29 colon
# COLO 205 colon = test system: COLO 205 colon
# SNB-75 CNS = test system: SNB-75 CNS
# SK-MEL-28 melanoma = test system: SK-MEL-28 melanoma
# HCT-116 colon = test system: HCT-116 colon
# MALME-3M melanoma = test system: MALME-3M melanoma
# UACC-257 melanoma = test system: UACC-257 melanoma
# NCI-H23 lung = test system: NCI-H23 lung
# NCI-H460 lung = test system: NCI-H460 lung
# CCRF-CEM leukemia = test system: CCRF-CEM leukemia
# SR leukemia = test system: SR leukemia
# KM12 colon = test system: KM12 colon
# DMS 273 small cell lung = test system: DMS 273 small cell lung
# SF-539 CNS = test system: SF-539 CNS
# HCT-15 colon = test system: HCT-15 colon
# SN12C renal = test system: SN12C renal
# M14 melanoma = test system: M14 melanoma
# OVCAR-8 ovarian = test system: OVCAR-8 ovarian
# DLD-1 colon = test system: DLD-1 colon
# XF 498 CNS = test system: XF 498 CNS
# HOP-92 NSCLC = test system: HOP-92 NSCLC
# MOLT-4 leukemia = test system: MOLT-4 leukemia
# RPMI-8226 leukemia = test system: RPMI-8226 leukemia
# SK-MEL-5 melanoma = test system: SK-MEL-5 melanoma
# M19-MEL melanoma = test system: M19-MEL melanoma
# CAKI-1 renal = test system: CAKI-1 renal
# OVCAR-4 ovarian = test system: OVCAR-4 ovarian
# U251 CNS = test system: U251 CNS
# RXF 393 renal = test system: RXF 393 renal
# SK-MEL-2 melanoma = test system: SK-MEL-2 melanoma
# SK-OV-3 ovarian = test system: SK-OV-3 ovarian
# HCC-2998 colon = test system: HCC-2998 colon
# A498 renal = test system: A498 renal
# OVCAR-3 ovarian = test system: OVCAR-3 ovarian
# HOP-62 NSCLC = test system: HOP-62 NSCLC
# KM20L2 colon = test system: KM20L2 colon
# HL-60(TB) leukemia = test system: HL-60(TB) leukemia
# UO-31 renal = test system: UO-31 renal
# 786-0 renal = test system: 786-0 renal
# LOX IMVI melanoma = test system: LOX IMVI melanoma
# SW-620 colon = test system: SW-620 colon
# SNB-19 CNS = test system: SNB-19 CNS
# IGROV1 ovarian = test system: IGROV1 ovarian
# K-562 leukemia = test system: K-562 leukemia
# ACHN renal = test system: ACHN renal
# A549 NSCLC = test system: A549 NSCLC
# LXFL 529 NSCLC = test system: LXFL 529 NSCLC
# OVCAR-5 ovarian = test system: OVCAR-5 ovarian
# SF-295 CNS = test system: SF-295 CNS
# EKVX NSCLC = test system: EKVX NSCLC
# SNB-78 CNS = test system: SNB-78 CNS
# TK-10 renal = test system: TK-10 renal
# DMS 114 small cell lung = test system: DMS 114 small cell lung
# NCI-H522 lung = test system: NCI-H522 lung
smiles,measurement,setting,value
COc1cc([C@@H]2c3cc4c(cc3[C@@H](NC(=O)c3cccc(N)c3)C3COC(=O)[C@@H]32)OCO4)cc(OC)c1O (some centres not stated),TGI,UACC-62 melanoma,7.94 µM
same,TGI,RXF-631 renal,18.5 µM
same,TGI,NCI-H226 lung,1.62 µM
same,TGI,SF-268 CNS,13.9 µM
same,TGI,HT29 colon,21.3 µM
same,TGI,COLO 205 colon,> 100 µM
same,TGI,SNB-75 CNS,11.6 µM
same,TGI,SK-MEL-28 melanoma,> 88.5 µM
same,TGI,HCT-116 colon,> 42.4 µM
same,TGI,MALME-3M melanoma,8.87 µM
same,TGI,UACC-257 melanoma,> 100 µM
same,TGI,NCI-H23 lung,2.22 µM
same,TGI,NCI-H460 lung,1.97 µM
same,TGI,CCRF-CEM leukemia,> 33 µM
same,TGI,SR leukemia,0.321 µM
same,TGI,KM12 colon,15 µM
same,TGI,DMS 273 small cell lung,12.1 µM
same,TGI,SF-539 CNS,1.53 µM
same,TGI,HCT-15 colon,19.7 µM
same,TGI,SN12C renal,3.78 µM
same,TGI,M14 melanoma,> 20.4 µM
same,TGI,OVCAR-8 ovarian,14.8 µM
same,TGI,DLD-1 colon,> 67.2 µM
same,TGI,XF 498 CNS,25 µM
same,TGI,HOP-92 NSCLC,15.9 µM
same,TGI,MOLT-4 leukemia,2.33 µM
same,TGI,RPMI-8226 leukemia,18.1 µM
same,TGI,SK-MEL-5 melanoma,6.16 µM
same,TGI,M19-MEL melanoma,> 100 µM
same,TGI,CAKI-1 renal,6.18 µM
same,TGI,OVCAR-4 ovarian,> 66.9 µM
same,TGI,U251 CNS,4.51 µM
same,TGI,RXF 393 renal,23.5 µM
same,TGI,SK-MEL-2 melanoma,10.1 µM
same,TGI,SK-OV-3 ovarian,> 22.9 µM
same,TGI,HCC-2998 colon,7.23 µM
same,TGI,A498 renal,8.08 µM
same,TGI,OVCAR-3 ovarian,30.2 µM
same,TGI,HOP-62 NSCLC,0.0964 µM
same,TGI,KM20L2 colon,36 µM
same,TGI,HL-60(TB) leukemia,2.11 µM
same,TGI,UO-31 renal,26.1 µM
same,TGI,786-0 renal,2.3 µM
same,TGI,LOX IMVI melanoma,12.7 µM
same,TGI,SW-620 colon,35 µM
same,TGI,SNB-19 CNS,31.6 µM
same,TGI,IGROV1 ovarian,> 41.6 µM
same,TGI,K-562 leukemia,> 49.3 µM
same,TGI,ACHN renal,2.4 µM
same,TGI,A549 NSCLC,2.55 µM
same,TGI,LXFL 529 NSCLC,> 100 µM
same,TGI,OVCAR-5 ovarian,12.8 µM
same,TGI,SF-295 CNS,5.13 µM
same,TGI,EKVX NSCLC,15.6 µM
same,TGI,SNB-78 CNS,> 84.4 µM
same,TGI,TK-10 renal,18.4 µM
Cc1cc(C)nc(NS(=O)(=O)c2ccc(NC(=O)c3cccc4c(Nc5ccc(S(=O)(=O)N=C(N)N)cc5)c5ccc(Cl)cc5nc34)cc2)n1,TGI,UACC-62 melanoma,> 100 µM
same,TGI,RXF-631 renal,> 100 µM
same,TGI,SF-268 CNS,> 100 µM
same,TGI,HT29 colon,> 100 µM
same,TGI,SNB-75 CNS,> 100 µM
same,TGI,SK-MEL-28 melanoma,> 100 µM
same,TGI,HCT-116 colon,35.4 µM
same,TGI,MALME-3M melanoma,> 100 µM
same,TGI,UACC-257 melanoma,59.9 µM
same,TGI,NCI-H23 lung,> 100 µM
same,TGI,NCI-H460 lung,> 100 µM
same,TGI,CCRF-CEM leukemia,> 100 µM
same,TGI,SR leukemia,80.5 µM
same,TGI,KM12 colon,> 100 µM
same,TGI,SF-539 CNS,73.7 µM
same,TGI,DMS 114 small cell lung,> 100 µM
same,TGI,HCT-15 colon,> 100 µM
same,TGI,SN12C renal,> 100 µM
same,TGI,M14 melanoma,> 100 µM
same,TGI,OVCAR-8 ovarian,> 100 µM
same,TGI,DLD-1 colon,43.2 µM
same,TGI,XF 498 CNS,> 100 µM
same,TGI,MOLT-4 leukemia,60.8 µM
same,TGI,RPMI-8226 leukemia,63 µM
same,TGI,NCI-H522 lung,39.8 µM
same,TGI,M19-MEL melanoma,> 100 µM
same,TGI,U251 CNS,31.4 µM
same,TGI,RXF 393 renal,36.5 µM
same,TGI,SK-OV-3 ovarian,> 100 µM
same,TGI,HCC-2998 colon,43.5 µM
same,TGI,A498 renal,> 100 µM
same,TGI,OVCAR-3 ovarian,52.2 µM
same,TGI,HOP-62 NSCLC,> 100 µM
same,TGI,KM20L2 colon,> 100 µM
same,TGI,UO-31 renal,> 100 µM
same,TGI,786-0 renal,32.2 µM
same,TGI,LOX IMVI melanoma,43.3 µM
same,TGI,SNB-19 CNS,53.3 µM
same,TGI,K-562 leukemia,> 100 µM
same,TGI,ACHN renal,> 100 µM
same,TGI,LXFL 529 NSCLC,> 100 µM
same,TGI,OVCAR-5 ovarian,> 100 µM
same,TGI,SF-295 CNS,53 µM
same,TGI,EKVX NSCLC,> 100 µM
same,TGI,SNB-78 CNS,> 100 µM
same,TGI,TK-10 renal,> 100 µM
